Experimental findings from US20180000768A1, “INTESTINAL FXR AGONISM ENHANCES GLP-1 SIGNALING TO RESTORE PANCREATIC BETA CELL FUNCTIONS” (Salk Institute for Biological Studies, priority 2015, published 2018) are described below.

The structures appear in SMILES notation. Entries after “also recorded” stand apart in the source; their conditions may differ.

One data set relates to Human intestinal L cells. Briefly: maintenance of ATP levels under bethanechol chloride. Type of data set: cell-based. The note with it: L cells incubated with bethanechol chloride; DMSO-treated L cells 67%. The method, then:
To further examine how this increase in respiratory capacity affects L cell bioenergetics, the maintenance of ATP levels under energetic demanding conditions was evaluated. Human intestinal L cells treated with DMSO or Fex were incubated with the muscarinic receptor agonist bethanechol chloride and residual ATP levels determined. […] Fex-treated L cells were able to maintain 83% of the initial ATP abundance whereas DMSO-treated L cells were able to maintain 67% (FIG. 7D). Thus, Fex enhances overall mitochondrial bioenergetics in enteroendocrinal L cells.

In data set [1] the test system is ob/ob mice. Briefly: in vivo GLP-1 secretion after glucose load. Also noted: species or system mouse. The note with it: Fex-treated ob/ob mice, sitagliptin (25 mg/kg) prior to glucose challenge. Here is the method:
In vitro GLP-1 secretion assay was performed in human enteroendocrinal L cells (NCI-H716). For each secretion assay, cells were seeded at 1×10^5 cells/ml (1 ml/well) in a matrigel-coated 24-well plate. Prior to GLP-1 secretion assay, cells were pre-treated with DMSO, 1 μM Fex, or 1 μM Fex-D overnight. Cells were deprived in Krebs buffer (with 0.1% BSA) with dipeptidyl peptidase (DPP)-4 inhibitor ([…] sitagliptin). GLP-1 was measured with a commercial kit (EZGLP1T-36K, Millipore). For in vivo GLP-1 secretion, each animal was gavaged with 25 mg per kg of body weight sitagliptin 60-minutes before glucose load. Blood was collected from the tail vein at the indicated intervals, and transferred to serum collection tubes containing sitagliptin.
To investigate whether Fex enhances GLP-1 secretion in vivo, mice were challenged with a DPP4 inhibitor, sitagliptin (25 mg/kg) prior to a glucose challenge.

In data set [2] the test system is ob/ob mice. Briefly: in vivo glucose-stimulated insulin secretion (GSIS). The note with it: Fex 100 mg/kg daily P.O., 5 weeks. Also noted: species or system mouse. Here is the method:
Insulin resistance can be associated with reduced […] insulin secretion in response to glucose, while GLP-1 augments glucose-stimulated insulin secretion (GSIS). To examine whether Fex treatment improves GSIS, serum insulin levels were determined after a glucose challenge in ob/ob mice.

Data set [3] concerns pancreatic islets from ob/ob mice. The experiment in a line: Insulin secretion assay on isolated pancreatic islets (ex vivo). The note with it: islets from Fex-treated mice. It counts as cell-based, mouse. The method, then: Mouse pancreatic islets were isolated from ob/ob mice according to a method used for rats traditionally. Briefly, 0.5 mg/ml collagenase P (Roche) diluted in HBSS buffer was injected through the common bile duct and the perfused pancreas was dissected and incubated in water bath with 37° C. for 21 minutes. Digested exocrine cells and intact islets were separated using Histopaque-1077 (SIGMA) with centrifugation by 900 g for 15 minutes and intact islets were picked up manually.
Insulin release from intact islets was monitored using batch incubation methods.
Isolated pancreatic islets were cultured over-night with […] supplemented with 10% (v/v) fetal bovine serum and 1% (v/v) Antibiotics-antimycotic solution, were pre-cultured at 37° C. for 30 minutes in Krebs Ringer bicarbonate buffer (KRBH) containing 129.4 mM NaCl, 3.7 mM KCl, 2.7 mM CaCl2, 1.3 mM KH2PO4, 1.3 mM MgSO4, 24.8 mM NaHCO3 (equilibrated with 5% CO2, 95% O2, pH7.4), 10 mM HEPES and 0.2% (v/v) BSA (fraction V) with 3 mM glucose. N ext, the pancreatic islets were incubated for 30 minutes KRBH buffer (500 μl/10 islets) with 3 mM or 20 mM glucose with or without 100 nM Exendin-4 to determine insulin secretion levels. At the end of the incubation period, islets were pelleted by centrifugation, and aliquots of the buffer were sampled. The amounts of insulin were determined by Rat/mouse Insulin ELISA KIT (Millipore) for mice islets.

Data set [4] concerns ob/ob mice. The experiment in a line: gene expression (RNA-Seq, QPCR) in tissues of treated ob/ob mice. Type of data set: in vivo, mouse. Here is the method:
Total RNA was isolated from cell pellets treated with RNAlater using the RNA mini kit (Qiagen) and treated with DNaseI (Qiagen) for 30 minutes at room temperature. Sequencing libraries were prepared from 100-500 ng total RNA using the TruSeq RNA Sample Preparation Kit v2 (Illumina) according to the manufacturer's protocol. Briefly, mRNA was purified, fragmented, and used for first-, then second-strand cDNA synthesis followed by adenylation of 3′ ends. Samples were ligated to unique adapters and subjected to PCR amplification. Mulitplexed libraries were then validated using the 2100 BioAnalyzer (Agilent), normalized, and pooled for sequencing. RNA-Seq libraries prepared from two biological replicates for each experimental condition were sequenced on the Illumina HiSeq 2500 using bar-coded multiplexing and a 100 bp read length.
Image analysis and base calling were performed with Illumina CASAVA-1.8.2. This yielded a median of 29.9M usable reads per sample. Short read sequences were mapped to a UCSC mm9 reference sequence using the RNA-seq aligner STAR. Known splice junctions from mm9 were supplied to the aligner and de novo junction discovery was also permitted. Differential gene expression analysis, statistical testing and annotation were performed using Cuffdiff 2. Transcript expression was calculated as gene-level relative abundance in fragments per kilobase of exon model per million mapped fragments and employed correction for transcript abundance bias. RNA-Seq results for genes of interest were also explored visually using the UCSC Genome Browser.

The subject of the next data set is isolated islets. Briefly: gene expression after direct ex vivo treatment of isolated islets. It counts as cell-based, mouse. The note with it: 24 hours ex vivo, XL335 1 μM, Fex 1 μM. The method, then:
Leptin-deficient ob/ob mice were treated daily with vehicle, Fex, or the analogue Fex-D (50 mg/kg) via P.O. for 14 days (A) Chemical structures of fexaramine and Fex-D (B) Schematic of the experimental design (C) Serum glucose levels (D) Glucose tolerance test (E) Insulin secretion in vivo (F) GLP-1 secretion in vivo (G) Heatmap showing hierarchal clustering of gene expression changes in islet induced by Fex (100 mg/kg, 4 wks) and FexD (50 mg/kg, 2 weeks) treatment in ob/ob mice (in vivo); by treatment of islets with XL335 (1 μM), Fex (1 μM), mFgf15 and hFgf19 (24 hours ex vivo); and mFgf15 (0.15 mg/kg, 2 weeks) and INT777 (Tgr5, 60 mg/kg, 4 weeks) treatment of ob/ob mice (in vivo). Gene expression was measured by RNA-Seq and changes are expressed as Z-score. (H) Ven diagram of changes in gene expression in pancreatic islets induced by FEX (100 mg/kg for 5 weeks) and FEX-D (50 mg/kg for 14 days). […] Data represent the mean±STD. Statistical analysis was performed with the Student's t test. *p<0.05, **p<0.01.
Next, primary islets were isolated from mice treated by Fex-D to compare gene expression changes.

In data set [5] the test system is Leptin-deficient ob/ob mice. The experiment in a line: metabolic phenotype and glucose homeostasis of treated ob/ob mice. It counts as in vivo, mouse. The note with it: Fex 100 mg/kg/day, reduced treatment duration (2 weeks).
Data set [6] concerns human intestinal epithelial Caco2 cells. The experiment in a line: in vitro permeability in Caco2 cells. The note with it: Caco2 cells, 2 hour incubation. For orientation: Passage across Caco-2 layers is used to estimate intestinal permeability.

As to `COC(=O)/C=C/c1cccc(N(Cc2ccc(-c3ccc(N(C)C)cc3)cc2)C(=O)C2CCCCC2)c1` [Fexaramine], the “residual ATP, % of the initial ATP abundance maintained” value with Human intestinal L cells came to 83%. For the same molecule, in the data set on ob/ob mice [1], the “glucose tolerance after DPP4 inhibitor pre-treatment” value is given as “improved” and the “plasma GLP-1 level 20 minutes after the glucose challenge” value is on record as “increase”. Also, the “serum insulin after a glucose challenge” value in the data set on ob/ob mice [2] was “significant increase”. Moreover, in data set [3], the “ex vivo insulin secretion in response to 20 mM glucose” value is reported as “dramatically increased” and the “insulin content in ex vivo islets” value is “significantly higher”. In addition, the “FXR target genes SHP and FGF15 in the intestine” value with ob/ob mice [4] (Fex 100 mg/kg daily P.O., 5 weeks, ileum) is given as “markedly upregulated”. Further, the “expression of the GLP-1 receptor in islets” value in the data set with ob/ob mice [4] (Fex 100 mg/kg for 5 weeks, listed as Fex) was “increased expression; also recorded: significantly increased”. In the data set on isolated islets, the “transcriptional changes seen in islets in vivo with Fex and Fex-D” value is “not observed”. Further, the fasting glucose levels entry in data set [5] is “little effect”. Moreover, in data set [6], the in vitro permeability result is reported as “low”.
